Patent US9517265B2, “Methods for the prevention and/or treatment of memory impairment” (The Governing Council of the University of Toronto, priority 2010, dated 2016)
Entries after “also recorded” stand apart in the source; their conditions may differ.

How the values were obtained:
α5GABAA receptors [1] = target: T1, α5GABAA receptors (Homo sapiens, UniProt P18507+P31644); conditions: cited from earlier work
T1 sequence (P31644 32-462): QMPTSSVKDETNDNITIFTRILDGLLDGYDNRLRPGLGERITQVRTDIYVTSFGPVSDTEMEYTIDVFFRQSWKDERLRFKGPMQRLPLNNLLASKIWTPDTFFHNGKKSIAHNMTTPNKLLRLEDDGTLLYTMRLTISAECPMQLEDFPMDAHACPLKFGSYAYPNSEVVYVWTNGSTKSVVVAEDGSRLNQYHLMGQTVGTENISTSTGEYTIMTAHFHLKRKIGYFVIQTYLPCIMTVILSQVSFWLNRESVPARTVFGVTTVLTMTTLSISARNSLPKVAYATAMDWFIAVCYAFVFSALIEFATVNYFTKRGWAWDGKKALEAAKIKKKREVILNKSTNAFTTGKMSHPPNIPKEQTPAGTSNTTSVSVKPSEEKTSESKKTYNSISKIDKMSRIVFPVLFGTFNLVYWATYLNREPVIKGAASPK
T1 sequence (P28472 26-473 partner): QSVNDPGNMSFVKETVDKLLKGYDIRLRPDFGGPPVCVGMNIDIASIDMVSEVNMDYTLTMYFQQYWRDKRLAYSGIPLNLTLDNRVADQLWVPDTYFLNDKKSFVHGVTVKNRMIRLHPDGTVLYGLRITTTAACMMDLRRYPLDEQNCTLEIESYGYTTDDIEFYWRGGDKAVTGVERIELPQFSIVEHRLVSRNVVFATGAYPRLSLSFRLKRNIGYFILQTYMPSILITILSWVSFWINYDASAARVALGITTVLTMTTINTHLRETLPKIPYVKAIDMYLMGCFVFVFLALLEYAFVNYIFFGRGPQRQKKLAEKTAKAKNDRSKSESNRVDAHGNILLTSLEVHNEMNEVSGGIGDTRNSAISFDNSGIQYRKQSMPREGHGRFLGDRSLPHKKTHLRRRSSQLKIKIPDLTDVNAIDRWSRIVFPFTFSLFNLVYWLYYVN
T1 sequence (P18507 40-467 limits assumed): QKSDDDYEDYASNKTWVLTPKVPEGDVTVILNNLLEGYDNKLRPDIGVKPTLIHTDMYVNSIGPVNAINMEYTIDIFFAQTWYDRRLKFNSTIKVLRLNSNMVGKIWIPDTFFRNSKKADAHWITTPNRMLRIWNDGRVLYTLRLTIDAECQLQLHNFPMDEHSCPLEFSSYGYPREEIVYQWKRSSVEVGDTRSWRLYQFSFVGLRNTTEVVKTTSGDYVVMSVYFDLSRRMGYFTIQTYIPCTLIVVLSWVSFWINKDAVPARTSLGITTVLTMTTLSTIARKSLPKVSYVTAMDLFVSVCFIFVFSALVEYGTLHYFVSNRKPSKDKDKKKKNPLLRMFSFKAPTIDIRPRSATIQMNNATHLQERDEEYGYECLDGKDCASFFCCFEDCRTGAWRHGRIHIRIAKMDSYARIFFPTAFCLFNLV

[2] = cited from earlier work
α5GABAARs = α5GABAARs (Mus musculus, UniProt P22723+Q8BHJ7); assay: Fear conditioning after IL-1β or LPS injection; assay type: in vivo, mice
Protocol: Pavlovian fear-conditioning tasks were used for behavioral analysis^29. LPS (125 μg kg^−1, i.p., with physiological saline as the vehicle control) or IL-1β (1 μg kg^−1, i.p., with 0.1% bovine serum albumin as the vehicle control) was injected into male 3- to 4-month-old WT and Gabra5−/− mice 3 h before conditioning. The intensity of the electric footshock was 0.5 mA. For some mice, the inverse agonist L-655,708 (0.35 or 0.5 mg kg^−1, i.p.) or vehicle control (10% DMSO, i.p.) was injected 30 min before training. The movement of the mouse was monitored. The percentage of time that each mouse spent in a freezing position was determined using FreezeView software (Version 2.26, Actimetrics Inc, Wilmette, Ill., USA).
We have determined that IL-1β-induced impairment of contextual fear memory can be reversed by pharmacological inhibition of α5GABAA receptors by the inverse agonist MRK-016. Fear conditioning was performed 3 h after injection of IL-1β (1 μg kg^−1, i.p.) in both wild-type (WT) and α5GABAA receptor knock out (Gabra5−/−) mice. Mice were trained to associate a context (contextual fear) and a tone (cued fear) with an aversive electric footshock. 24 h after conditioning each mouse was placed in the training context, and contextual fear memory was measured as the percentage of time spent freezing. Cued fear memory was measured 48 h after training as the percentage of time spent freezing to the conditioned auditory tone in a novel context.

α5GABAA receptors [3] = assay: In vivo receptor occupancy of L-655,708 (literature); conditions: 0.7 mg/kg intraperitoneal, 30 min after injection
[4] = cited from earlier work; remark: listed apart in the source
[5] = Analysis of blood gases during isoflurane anesthesia; assay type: in vivo, mice; conditions: for pH: n = 6
Description: A needle was carefully inserted into the heart and blood was extracted into a heparinized syringe. The collected blood was immediately placed on ice and transported to a blood gas analyzer (ABL 700 series, Radiometer, Copenhagen, Denmark).

[6] = Core (rectal) temperature during anesthesia; assay type: in vivo, mice
Protocol: Mice were placed in the air-tight acrylic glass chamber for administration of the anesthetic; a rectal probe was inserted after the mice lost their righting reflex and rectal temperature was […] to measure temperature between 5 min and 1 h. The rectal probe was not inserted prior to the 5 min mark to ensure the mice were adequately anesthetized and not discomforted.

[7] = cited from earlier work; remark: listed apart in the source

Chain of α5GABAARs (Q8BHJ7 32-463 limits assumed): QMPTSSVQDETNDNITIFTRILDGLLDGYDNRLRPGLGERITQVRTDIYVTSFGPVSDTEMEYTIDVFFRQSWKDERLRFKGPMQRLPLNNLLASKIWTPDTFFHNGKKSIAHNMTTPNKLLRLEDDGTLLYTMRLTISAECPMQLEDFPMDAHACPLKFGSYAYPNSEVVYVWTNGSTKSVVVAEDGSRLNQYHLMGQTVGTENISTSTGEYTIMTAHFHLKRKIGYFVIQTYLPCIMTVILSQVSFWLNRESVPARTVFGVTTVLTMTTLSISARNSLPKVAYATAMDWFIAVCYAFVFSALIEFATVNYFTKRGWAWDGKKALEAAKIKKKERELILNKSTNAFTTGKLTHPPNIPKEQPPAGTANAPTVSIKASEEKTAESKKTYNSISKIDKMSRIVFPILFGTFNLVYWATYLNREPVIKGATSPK
Chain of α5GABAARs (P63080 26-473 partner): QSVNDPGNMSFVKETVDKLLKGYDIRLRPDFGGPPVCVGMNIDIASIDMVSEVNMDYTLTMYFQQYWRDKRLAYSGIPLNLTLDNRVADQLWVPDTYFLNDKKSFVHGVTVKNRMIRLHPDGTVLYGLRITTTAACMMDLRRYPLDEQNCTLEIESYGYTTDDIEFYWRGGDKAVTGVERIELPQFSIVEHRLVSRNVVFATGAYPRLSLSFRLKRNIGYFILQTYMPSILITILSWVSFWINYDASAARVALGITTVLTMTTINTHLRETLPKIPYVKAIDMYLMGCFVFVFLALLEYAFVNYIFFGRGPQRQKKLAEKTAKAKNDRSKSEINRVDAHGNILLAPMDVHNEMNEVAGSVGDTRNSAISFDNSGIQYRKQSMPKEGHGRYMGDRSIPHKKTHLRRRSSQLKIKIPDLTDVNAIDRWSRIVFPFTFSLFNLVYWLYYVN
Chain of α5GABAARs (P22723 39-474): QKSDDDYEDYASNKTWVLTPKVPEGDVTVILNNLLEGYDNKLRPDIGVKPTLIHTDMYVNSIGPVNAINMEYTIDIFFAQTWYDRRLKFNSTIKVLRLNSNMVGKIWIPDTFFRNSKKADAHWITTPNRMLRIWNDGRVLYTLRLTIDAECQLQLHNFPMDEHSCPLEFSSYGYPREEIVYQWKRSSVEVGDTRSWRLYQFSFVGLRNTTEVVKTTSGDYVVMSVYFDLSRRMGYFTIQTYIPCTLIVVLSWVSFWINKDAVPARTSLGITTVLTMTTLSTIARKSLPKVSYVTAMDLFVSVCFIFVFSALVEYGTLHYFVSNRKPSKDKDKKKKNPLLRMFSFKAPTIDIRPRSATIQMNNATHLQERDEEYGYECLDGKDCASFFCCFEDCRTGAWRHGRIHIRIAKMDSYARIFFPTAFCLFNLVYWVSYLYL

## CCOC(=O)c1ncn2c1[C@@H]1CCCN1C(=O)c1cc(OC)ccc1-2 [L-655,708]
α5GABAA receptors [1]
  affinity for α5GABAA receptors relative to other receptor subtypes: 50 fold
  preference for α5GABAA receptors over α2 subunit-containing GABAA receptors: 61 fold
  preference for α5GABAA receptors over α3 subunit-containing GABAA receptors: 54 fold
α5GABAA receptors [1]; in vitro electrophysiological and biochemical studies
  preference for α5GABAA receptors over α1 subunit-containing GABAA receptors: 107 fold
[2]; rat, in vivo
  half-life: 30 min
  time of peak: 0.25 h
[2]; subcutaneous injection
  brain versus plasma concentrations (in words): concentrations in the brain mimic those in the plasma
α5GABAARs; IL-1β 1 μg kg^−1 i.p. or LPS 125 μg kg^−1 i.p. 3 h before conditioning, inverse agonist co-administered
  contextual fear memory, WT mice (in words): attenuated the IL-1β-induced contextual fear memory deficits in WT mice; also recorded: restored freezing scores for contextual fear memory to control values
α5GABAARs; mouse, in vivo
  cued fear memory to a conditioned tone stimulus (in words): did not affect freezing to a conditioned tone stimulus
α5GABAA receptors [3]
  estimated occupancy of α5GABAA receptors in vivo: 60-70%

## FC(F)OC(Cl)C(F)(F)F (stereo not shown) [isoflurane]
[4]; administered during contextual fear learning
  concentration required to impair the freezing response: 0.6%
[4]; rat, in vivo
  concentration required for memory blockade during anesthesia: 0.4%
[4]; rats
  threshold concentration that impaired memory performance during fear conditioning: 0.2%
[5]; isoflurane 1 MAC in 30% O2 for 1 h or 5 min
  hypoxia (in words): Hypoxia did not occur
[5]; isoflurane 5 min
  pCO2: 48.6 ± 2.02 mmHg
  pO2: 142 ± 16 mmHg
  pH: 7.28 ± 0.02
[5]; isoflurane 60 min
  pCO2: 54.2 ± 12.3 mmHg
  pO2: 193 ± 31 mmHg
  pH: 7.23 ± 0.08
[6]; 5 min after introduction into the anesthetic chamber
  rectal temperature: 37.8±0.4 °C
[6]; 1 h after induction
  rectal temperature: 37.8±0.4 °C
[7]; after 270 min of elimination following isoflurane 1.3% for 90 min
  fraction that had left the brain: 96%
[7]; humans
  elimination, initial fast component: 5 min
  elimination, slower component: 15 min
[7]; in vivo
  fraction metabolized: less than 0.2%
  fraction recovered in expired gas: ~100%
[7]; within 270 min, laboratory animals
  fraction eliminated from the brain: 97%
